Results taken from patent publication US20250092044A1, “Kinase Inhibitors” (Incyte Corporation, priority 2023, published 2025).

Columns and labels:
[1] = biological target: pseudo-kinase domain (JH2) of human V617F mutant JAK2 (Homo sapiens (Human), UniProt O60674, F794H/V617F/W659A/W777A); assay: JAK2 LanthaScreen JH2-V617F Binding Assay; settings: read-out: JH2 V617F Bind IC50
Summary of the method: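 Biotinylated His-Avi JAK2 JH2 (aa 536-812, V617F plus W659A/W777A/F794H; 0.26 nM) incubated 1 h at 25 °C with compound, 50 nM fluorescent JH2 tracer and 0.25 nM streptavidin-Tb in Tris pH 7.5 buffer. TR-FRET tracer displacement read; nonspecific binding with 2 mM ATP; IC50 from four-parameter fit.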

TRKA [2] = biological target: TRKA (Homo sapiens (Human), UniProt P04629); assay: TRKA Enzymatic Assay; assay type: biochemical; settings: 1 mM ATP
TRKA (Homo sapiens (Human), UniProt P04629), sequence (P04629 33-796, species assumed): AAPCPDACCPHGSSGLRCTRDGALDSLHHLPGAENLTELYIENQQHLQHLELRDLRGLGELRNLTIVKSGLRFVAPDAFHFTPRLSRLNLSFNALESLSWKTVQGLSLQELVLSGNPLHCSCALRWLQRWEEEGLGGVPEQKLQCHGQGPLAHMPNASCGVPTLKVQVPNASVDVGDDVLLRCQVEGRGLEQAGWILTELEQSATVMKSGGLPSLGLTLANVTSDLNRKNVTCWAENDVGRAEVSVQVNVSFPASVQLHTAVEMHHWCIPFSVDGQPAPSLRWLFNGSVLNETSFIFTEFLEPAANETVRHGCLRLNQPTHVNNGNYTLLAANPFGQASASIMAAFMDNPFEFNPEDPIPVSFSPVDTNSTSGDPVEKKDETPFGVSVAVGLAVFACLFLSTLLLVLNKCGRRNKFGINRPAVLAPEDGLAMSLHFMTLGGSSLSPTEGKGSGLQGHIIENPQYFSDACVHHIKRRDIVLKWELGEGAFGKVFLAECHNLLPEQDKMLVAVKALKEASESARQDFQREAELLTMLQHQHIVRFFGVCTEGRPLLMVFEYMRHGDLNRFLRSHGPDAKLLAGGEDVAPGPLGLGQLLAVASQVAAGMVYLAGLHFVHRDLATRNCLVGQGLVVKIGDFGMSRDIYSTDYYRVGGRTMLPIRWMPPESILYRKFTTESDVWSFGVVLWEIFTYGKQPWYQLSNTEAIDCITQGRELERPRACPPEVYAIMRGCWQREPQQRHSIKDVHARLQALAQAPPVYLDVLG
Method: (§1) The kinase assays were carried out at 24° C. temperature in assay buffer (HEPES 50 mM, pH 7.0, NaN3 0.02%, BSA 0.01%, Orthovanadate 0.1 mM, DTT 1 mM, MgCl2 10 mM) in a final volume of 10 μL. Testing compounds were prepared by serial dilution in DMSO and transferred to the plate wells by ECHO liquid handler (Labcyte) with 0.5% DMSO in the final assay. […]. Reactions were initiated by the addition of 5 μL ATP in assay buffer. The final 10 μL kinase reaction consisted of 0.58 nM TRKA, 1 mM ATP, 500 nM TK Substrate-biotin and SEB reagent 62.5 nM in assay buffer. […] After 60 minutes incubation at room temperature, the product activity was determined by measuring the fluorescence at 620 nm and 665 nm on Pherastar microplate reader (BMG Labtech). A ratio was calculated (665/620 nm) for each well. Wells with DMSO only served as the positive controls and wells containing no ATP were used as negative controls. IC50 determination was performed by fitting the curve of percent control activity versus the log of the compound concentration using the Gene data.

TRKA [3] = assay: TRKA Enzymatic Assay; assay type: biochemical
Method: as §1

pseudo-kinase domain (JH2) of human V617F mutant JAK2, sequence (O60674 536-812 V617F/W659A/W777A/F794H): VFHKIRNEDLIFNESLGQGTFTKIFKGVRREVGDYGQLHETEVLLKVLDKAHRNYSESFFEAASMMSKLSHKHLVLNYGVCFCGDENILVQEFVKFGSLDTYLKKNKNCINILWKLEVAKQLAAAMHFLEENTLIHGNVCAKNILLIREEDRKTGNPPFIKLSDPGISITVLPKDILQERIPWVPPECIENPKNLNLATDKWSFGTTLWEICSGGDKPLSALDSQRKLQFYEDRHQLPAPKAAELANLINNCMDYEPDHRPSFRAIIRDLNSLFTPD

SMILES | IC50 [1] | IC50 (TRKA [2]) | Selectivity TRKA/JH2 V617F (TRKA [3])
COCCN(C)C(=O)c1ccc(-c2[nH]c3ncc4c(c3c2-c2ccc3c(cnn3C(C)C)c2)n([C@@H]2CC[C@@H](NC(=O)OC)C2)c(=O)n4C)cc1F [Example 15, Methyl ((1R,3R)-3-(7-(3-fluoro-4-((2-methoxyethyl)(methyl)carbamoyl)phenyl)-8-(1-isopropyl-1H-indazol-5-yl)-3-methyl-2-oxo-3,6-dihydroimidazo[4,5-d]pyrrolo[2,3-b]pyridin-1(2H)-yl)cyclopentyl)carbamate] | ≤ 10 nM | > 2500 nM | ****** (selectivity of >12500-fold)
COC(=O)N[C@@H]1CC[C@@H](n2c(=O)n(C)c3cnc4[nH]c(-c5ccc(C(=O)NC6CC6(F)F)c(F)c5)c(-c5ccc6c(cnn6C(C)C)c5)c4c32)C1 (stereo partly drawn) [Example 9, Methyl ((1R,3R)-3-(7-(4-((2,2-difluorocyclopropyl)carbamoyl)-3-fluorophenyl)-8-(1-isopropyl-1H-indazol-5-yl)-3-methyl-2-oxo-3,6-dihydroimidazo[4,5-d]pyrrolo[2,3-b]pyridin-1(2H)-yl)cyclopentyl)carbamate] | ≤ 10 nM | > 2500 nM | ****** (selectivity of >12500-fold)
CCNC(=O)c1ccc(-c2[nH]c3ncc4c(c3c2-c2ccc3c(cnn3C(C)C)c2)n([C@@H]2CC[C@@H](NC(=O)OC)C2)c(=O)n4C)cc1F [Example 6, Methyl ((1R,3R)-3-(7-(4-(ethylcarbamoyl)-3-fluorophenyl)-8-(1-isopropyl-1H-indazol-5-yl)-3-methyl-2-oxo-3,6-dihydroimidazo[4,5-d]pyrrolo[2,3-b]pyridin-1(2H)-yl)cyclopentyl)carbamate] | ≤ 10 nM | 1250 to 2500 nM | ***** (selectivity of >5000-fold to ≤12500-fold)
COC(=O)N[C@@H]1CC[C@@H](n2c(=O)n(C)c3cnc4[nH]c(-c5ccc(C(=O)NC6(C(F)(F)F)CC6)c(F)c5)c(-c5ccc6c(cnn6C(C)C)c5)c4c32)C1 [Example 13, Methyl ((1R,3R)-3-(7-(3-fluoro-4-((1-(trifluoromethyl)cyclopropyl)carbamoyl)phenyl)-8-(1-isopropyl-1H-indazol-5-yl)-3-methyl-2-oxo-3,6-dihydroimidazo[4,5-d]pyrrolo[2,3-b]pyridin-1(2H)-yl)cyclopentyl)carbamate] | ≤ 10 nM | > 2500 nM | ***** (selectivity of >5000-fold to ≤12500-fold)
CNC(=O)c1ccc(-c2[nH]c3ncc4c(c3c2-c2ccc3c(cnn3C(C)C)c2)n([C@@H]2CC[C@@H](NC(=O)OC)C2)c(=O)n4C)cc1F [Example 12, Methyl ((1R,3R)-3-(7-(3-fluoro-4-(methylcarbamoyl)phenyl)-8-(1-isopropyl-1H-indazol-5-yl)-3-methyl-2-oxo-3,6-dihydroimidazo[4,5-d]pyrrolo[2,3-b]pyridin-1(2H)-yl)cyclopentyl)carbamate] | ≤ 10 nM | > 2500 nM | ****** (selectivity of >12500-fold)
COC(=O)N[C@@H]1CC[C@@H](n2c(=O)n(C)c3cnc4[nH]c(-c5ccc(C(=O)NCC(F)(F)F)c(F)c5)c(-c5ccc6c(cnn6C(C)C)c5)c4c32)C1 [Example 11, Methyl ((1R,3R)-3-(7-(3-fluoro-4-((2,2,2-trifluoroethyl)carbamoyl)phenyl)-8-(1-isopropyl-1H-indazol-5-yl)-3-methyl-2-oxo-3,6-dihydroimidazo[4,5-d]pyrrolo[2,3-b]pyridin-1(2H)-yl)cyclopentyl)carbamate] | ≤ 10 nM | > 2500 nM | ****** (selectivity of >12500-fold)
COC(=O)N[C@@H]1CC[C@@H](n2c(=O)n(C)c3cnc4[nH]c(-c5ccc(C(=O)NC6CC6C(F)(F)F)c(F)c5)c(-c5ccc6c(cnn6C(C)C)c5)c4c32)C1 (stereo partly drawn) [Example 10, Methyl ((1R,3R)-3-(7-(3-fluoro-4-((2-(trifluoromethyl)cyclopropyl)carbamoyl)phenyl)-8-(1-isopropyl-1H-indazol-5-yl)-3-methyl-2-oxo-3,6-dihydroimidazo[4,5-d]pyrrolo[2,3-b]pyridin-1(2H)-yl)cyclopentyl)carbamate] | ≤ 10 nM | > 2500 nM | ****** (selectivity of >12500-fold)
COc1nn(C)cc1-c1[nH]c2ncc3c(c2c1-c1ccc2c(cnn2C)c1)n([C@H]1CC[C@@H](CC#N)CC1)c(=O)n3C [E, reference compound] | ≤ 10 nM | – | ** (selectivity of >500-fold to ≤1500-fold)
COC(=O)N[C@@H]1CC[C@@H](n2c(=O)n(C)c3cnc4[nH]c(-c5ccc(C(=O)N6CCOCC6)c(F)c5)c(-c5ccc6c(cnn6C(C)C)c5)c4c32)C1 [Example 16, Methyl ((1R,3R)-3-(7-(3-fluoro-4-(morpholine-4-carbonyl)phenyl)-8-(1-isopropyl-1H-indazol-5-yl)-3-methyl-2-oxo-3,6-dihydroimidazo[4,5-d]pyrrolo[2,3-b]pyridin-1(2H)-yl)cyclopentyl)carbamate] | ≤ 10 nM | 1250 to 2500 nM | ****** (selectivity of >12500-fold)
CCNC(=O)c1ccc(-c2[nH]c3ncc4c(c3c2-c2ccc3c(cnn3C(C)C)c2)n([C@@H]2CC[C@@H](NC(=O)OC)C2)c(=O)n4C)cc1 [Example 23, Methyl ((1R,3R)-3-(7-(4-(ethylcarbamoyl)phenyl)-8-(1-isopropyl-1H-indazol-5-yl)-3-methyl-2-oxo-3,6-dihydroimidazo[4,5-d]pyrrolo[2,3-b]pyridin-1(2H)-yl)cyclopentyl)carbamate] | ≤ 10 nM | 1250 to 2500 nM | ***** (selectivity of >5000-fold to ≤12500-fold)
COC(=O)N[C@@H]1CC[C@@H](n2c(=O)n(C)c3cnc4[nH]c(-c5ccc(C(=O)NC6CC6)c(F)c5)c(-c5ccc6c(cnn6C(C)C)c5)c4c32)C1 [Example 8, Methyl ((1R,3R)-3-(7-(4-(cyclopropylcarbamoyl)-3-fluorophenyl)-8-(1-isopropyl-1H-indazol-5-yl)-3-methyl-2-oxo-3,6-dihydroimidazo[4,5-d]pyrrolo[2,3-b]pyridin-1(2H)-yl)cyclopentyl)carbamate] | ≤ 10 nM | > 2500 nM | ****** (selectivity of >12500-fold)
CNC(=O)c1ccc(-c2[nH]c3ncc4c(c3c2-c2ccc3c(cnn3C(C)C)c2)n([C@@H]2CC[C@@H](NC(=O)OC)C2)c(=O)n4C)cc1 [Example 21, Methyl ((1R,3R)-3-(8-(1-isopropyl-1H-indazol-5-yl)-3-methyl-7-(4-(methylcarbamoyl)phenyl)-2-oxo-3,6-dihydroimidazo[4,5-d]pyrrolo[2,3-b]pyridin-1(2H)-yl)cyclopentyl)carbamate] | ≤ 10 nM | 1250 to 2500 nM | ****** (selectivity of >12500-fold)
COCCNC(=O)c1ccc(-c2[nH]c3ncc4c(c3c2-c2ccc3c(cnn3C(C)C)c2)n([C@@H]2CC[C@@H](NC(=O)OC)C2)c(=O)n4C)cc1F [Example 14, Methyl ((1R,3R)-3-(7-(3-fluoro-4-((2-methoxyethyl)carbamoyl)phenyl)-8-(1-isopropyl-1H-indazol-5-yl)-3-methyl-2-oxo-3,6-dihydroimidazo[4,5-d]pyrrolo[2,3-b]pyridin-1(2H)-yl)cyclopentyl)carbamate] | ≤ 10 nM | > 2500 nM | ****** (selectivity of >12500-fold)
